Measurements taken from US10688093B2, “Methods, compositions, and uses of novel Fyn kinase inhibitors” (priority 2015, dated 2020).

Target: full-length recombinant human FYN A (Homo sapiens (Human), UniProt P06241)
Assay: ADP-Glo Kinase Assay of FYN kinase inhibition
Type: biochemical
Conditions: primary screen, initial compounds
Summary of the method: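 ADP-Glo read-out of peptide phosphorylation after 90 min RT with 12.5 pmol ATP and 100 pg 12-mer substrate. Enzyme was N-GST full-length human FYN A from insect cells, 3 pg, pre-incubated 30 min with compound, 10 points from 10 μM top, 3-fold steps; IC50 from curve.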

full-length recombinant human FYN A, sequence (P06241 whole entry): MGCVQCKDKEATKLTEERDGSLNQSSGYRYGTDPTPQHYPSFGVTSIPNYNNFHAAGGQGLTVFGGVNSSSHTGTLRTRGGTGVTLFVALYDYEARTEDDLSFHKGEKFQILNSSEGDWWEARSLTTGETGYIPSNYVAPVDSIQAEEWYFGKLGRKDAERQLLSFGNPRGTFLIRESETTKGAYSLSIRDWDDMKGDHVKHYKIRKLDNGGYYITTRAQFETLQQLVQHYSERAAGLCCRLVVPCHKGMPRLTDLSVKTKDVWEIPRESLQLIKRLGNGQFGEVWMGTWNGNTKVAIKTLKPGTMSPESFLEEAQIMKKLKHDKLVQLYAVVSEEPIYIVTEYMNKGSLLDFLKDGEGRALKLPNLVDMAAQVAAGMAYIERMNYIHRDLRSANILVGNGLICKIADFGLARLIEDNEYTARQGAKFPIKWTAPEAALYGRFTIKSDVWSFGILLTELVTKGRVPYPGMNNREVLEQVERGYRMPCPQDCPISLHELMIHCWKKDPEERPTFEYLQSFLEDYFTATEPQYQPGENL

Compound | IC50 [µM]
Cn1cc(-c2cn3c(-c4ccsc4)cnc3cn2)cn1 [388_0074_8400, 6-(1-methylpyrazol-4-yl)-3-(3-thienyl)imidazo [1,2-a]pyrazine] | 6.38
CC(C)N1CCN(c2ccc(-c3cn4c(-c5ccc(O)cc5)cnc4cn3)cc2)CC1 [388_0080_0182, 4-[6-[4-(4-isopropyl-piperazin-1-yl)phenyl]imidazo [1,2-a]pyrazin-3-yl]phenol] | 0.637
O=C(NCCO)c1cccc(-c2cn3c(-c4ccc(O)cc4)cnc3cn2)c1 [388_0080_0192, N-(2-hydroxy-ethyl)-3-[3-(4-hydroxyphenyl)imidazo[1,2-a]pyrazin-6-yl]benzamide] | 1.03
CN1CCN(c2ccc(-c3cn4c(-c5ccc(O)cc5)cnc4cn3)cc2)CC1 [388_0080_0218, 4-[6-[4-(4-methyl-piperazin-1-yl)phenyl]imidazo [1,2-a]pyrazin-3-yl]phenol] | 0.678
O=C(NCCO)c1ccc(-c2cn3c(-c4ccc(O)cc4)cnc3cn2)cc1 [388_0080_0328, N-(2-hydroxyethyl)-4-[3-(4-hydroxyphenyl)imidazo[1,2-a]pyrazin-6-yl]benzamide] | 0.641
CN(C)C(=O)c1cccc(-c2cn3c(-c4ccc(O)cc4)cnc3cn2)c1 [388_0080_0349, 3-[3-(4-hydroxyphenyl)imidazo[1,2-a]pyrazin-6-yl]-N,N-dimethyl-benzamide] | 0.974
Oc1ccc(-c2cnc3cnc(-c4cnn(Cc5ccccc5)c4)cn23)cc1 [388_0080_7469, 4-[6-(1-benzylpyrazol-4-yl)imidazo[1,2-a]pyrazin-3-yl]phenol] | 6.62
O=C(NC1CC1)c1ccc(-c2cn3c(-c4ccc(O)cc4)cnc3cn2)cc1 [388_0080_7489, N-cyclopropyl-4-[3-(4-hydroxyphenyl)imidazo[1,2-a]pyrazin-6-yl]benzamide] | 1.96
Nc1ccc(-c2cn3c(-c4ccc(O)cc4)cnc3cn2)cn1 [388_0080_7905, 4-[6-(6-amino-3-pyridyl)imidazo [1,2-a]pyrazin-3-yl]phenol] | 1.93
COc1cc(-c2cnc3cnc(-c4cccc(NS(C)(=O)=O)c4)cn23)cc(OC)c1OC [388_0087_6488, N-[3-[3-(3,4,5-trimethoxyphenyl)imidazo[1,2-a]pyrazin-6-yl]phenyl] methane-sulfonamide] | 2.8
COc1ccc(-c2cnc3cnc(-c4ccc(O)cc4)cn23)cc1 [388_0280_0080, 4-[3-(4-methoxyphenyl)imidazo[1,2-a]pyrazin-6-yl]phenol] | 10.5
COc1cc(-c2cnc3cnc(-c4ccc(NCCN5CCOCC5)nc4)cn23)ccc1O [388_0314_0003, 2-methoxy-4-[6-[6-(2-morpholinoethyl-amino)-3-pyridyl]imidazo [1,2-a]pyrazin-3-yl]phenol] | 1.35
COc1cc(-c2cnc3cnc(-c4ccccc4N(C)C)cn23)ccc1O [388_0314_0006, 4-[6-[2-(dimethylamino)phenyl]imidazo [1,2-a]pyrazin-3-yl]-2-methoxy-phenol] | 1.75
COc1cc(-c2cnc3cnc(-c4ccc(N5CCN(C)CC5)nc4)cn23)ccc1O [388_0314_0016, 2-methoxy-4-[6-[6-(4-methylpiperazin-1-yl)-3-pyridyl]imidazo [1,2-a]pyrazin-3-yl]phenol] | 1.13
COc1cc(-c2cnc3cnc(-c4cccnc4)cn23)ccc1O [388_0314_0071, 2-methoxy-4-[6-(3-pyridyl)imidazo[1,2-a]pyrazin-3-yl]phenol] | 3.07
COc1cc(-c2cnc3cnc(-c4ccc(C(=O)NCCCN(C)C)cc4)cn23)ccc1O [388_0314_0180, N-[3-(dimethylamino)propyl]-4-[3-(4-hydroxy-3-methoxy-phenyl)imidazo [1,2-a]pyrazin-6-yl]benzamide] | 0.606

Compound | IC50 [µM]
COc1cc(-c2cnc3cnc(-c4cccc(C(=O)NCCO)c4)cn23)ccc1O [388_0314_0192, N-(2-hydroxyethyl)-3-[3-(4-hydroxy-3-methoxy-phenyl)imidazo [1,2-a]pyrazin-6-yl]benzamide] | 0.896
CCOc1cccc(-c2cn3c(-c4ccc(O)c(OC)c4)cnc3cn2)c1 [388_0314_0205, 4-[6-(3-ethoxyphenyl)imidazo[1,2-a]pyrazin-3-yl]-2-methoxy-phenol] | 1.36
COc1cc(-c2cnc3cnc(-c4ccc(C(=O)NCCN(C)C)cc4)cn23)ccc1O [388_0314_0327, N-(2-dimethylamino-ethyl)-4-[3-(4-hydroxy-3-methoxy-phenyl)imidazo [1,2-a]pyrazin-6-yl]benzamide] | 0.44
COc1cc(-c2cnc3cnc(-c4ccccc4Cl)cn23)ccc1O [388_0314_4027, 4-[6-(2-chlorophenyl)imidazo[1,2-a]pyrazin-3-yl]-2-methoxy-phenol] | 2.54
COc1cc(-c2cnc3cnc(-c4ccc(N)nc4)cn23)ccc1O [388_0314_7905, 4-[6-(6-amino-3-pyridyl)imidazo [1,2-a]pyrazin-3-yl]-2-methoxy-phenol] | 1.41
COc1cc(-c2cnc3cnc(-c4cnn(C)c4)cn23)ccc1O [388_0314_8400, 2-methoxy-4-[6-(1-methylpyrazol-4-yl)imidazo[1,2-a]pyrazin-3-yl]phenol] | 0.746
CC(=O)c1cccc(-c2cnc3cnc(-c4ccc(C(=O)NCCN(C)C)cc4)cn23)c1 [388_4145_0327, 4-[3-(3-acetylphenyl)imidazo[1,2-a]pyrazin-6-yl]-N-(2-dimethyl-aminoethyl) benzamide] | 4.07
Oc1ccc(-c2cn3c(-c4cccs4)cnc3cn2)cc1 [388_4147_0080, 4-[3-(2-thienyl)imidazo [1,2-a]pyrazin-6-yl]phenol] | 6.25
CN(C)CCNC(=O)c1ccc(-c2cn3c(-c4cccs4)cnc3cn2)cc1 [388_4147_0327, N-(2-dimethylamino-ethyl)-4-[3-(2-thienyl)imidazo [1,2-a]pyrazin-6-yl]benzamide] | 8.52
c1csc(-c2cn3c(-c4cccs4)cnc3cn2)c1 [388_4147_4147, 3,6-bis(2-thienyl)imidazo [1,2-a]pyrazine] | 5.03
Nc1ccc(-c2cn3c(-c4cccs4)cnc3cn2)cn1 [388_4147_7905, 5-[3-(2-thienyl)imidazo [1,2-a]pyrazin-6-yl]pyridin-2-amine] | 8.16
COc1cc(OC)cc(-c2cnc3cnc(-c4ccc(C(=O)NCCCN(C)C)cc4)cn23)c1 [388_7492_0180, 4-[3-(3,5-dimethoxyphenyl)imidazo[1,2-a]pyrazin-6-yl]-N-[3-(dimethyl-amino)propyl] benzamide] | 6.69
CCCN1CCc2nc(Nc3cc(OC)c(OC)c(OC)c3)ncc2C1 [582_9377_5632, 6-propyl-N-(3,4,5-trimethoxy-phenyl)-7,8-dihydro-5H-pyrido[4,3-d]pyrimidin-2-amine] | 14.7
CCNC(=O)N1CCc2nc(Nc3cc(OC)c(OC)c(OC)c3)ncc2C1 [582_9377_5725, N-ethyl-2-(3,4,5-trimethoxy-anilino)-7,8-dihydro-5H-pyrido[4,3-d]pyrimidine-6-carboxamide] | 4.25
COc1ccccc1C(=O)N1Cc2cnc(Nc3cccc(N(C)C)c3)nc2C1 [585_9372_5053, [2-[3-(dimethylamino)anilino]-5,7-dihydropyrrolo [3,4-d]pyrimidin-6-yl]-(2-methoxyphenyl) methanone] | 10.1

Same assay, conditions: secondary screen, re-synthesized and expanded compounds

Compound | IC50 [µM]
c1csc(CNc2ccc3ncc(-c4ccncc4)n3n2)c1 [BF000145941, 3-(4-pyridyl)-N-(2-thienyl-methyl)-[1,2-a]pyridazin-6-amine] | 0.105
c1cc(-c2cnc3ccc(NCc4ccc5c(c4)OCO5)nn23)ccn1 [BF000146108, N-(1,3-benzodioxol-5-ylmethyl)-3-(4-pyridyl)-imidazo[1,2-b]pyridazin-6-amine] | 0.297
COc1ccc(-c2cnc3ccc(NCc4ccc5c(c4)OCO5)nn23)cc1OC [BF000146114, N-(1,3-benzodioxol-5-ylmethyl)-3-[3,4-dimethoxy-phenyl)-imidazo[1,2-b]pyridazin-6-amine] | 6.22
COc1cc(-c2cnc3ccc(NCc4ccc5c(c4)OCO5)nn23)ccc1O [BF000146126, 4-[6-(1,3-benzodioxol-5-ylmethyl-amino)-imidazo[1,2-b]pyridazin-3-yl]-2-methoxy-phenol] | 1.31
Nc1cccc(-c2cnc3ccc(NC4CCOCC4)nn23)c1 [BF000146142, 3-(3-aminophenyl)-N-tetrahydro-pyran-4-yl-imidazo[1,2-b]pyridazin-6-amine] | 1.42
COc1ccc(-c2cnc3ccc(NC4CCOCC4)nn23)cc1OC [BF000146153, 3-(3,4-dimethoxy-phenyl)-N-tetrahydro-pyran-4-yl-imidazo[1,2-b]pyridazin-6-amine] | 0.48
CC(=O)Nc1cccc(-c2cnc3ccc(NC4CCOCC4)nn23)c1 [BF000146155, N-[3-[6-(tetra-hydropyran-4-ylamino)-imidazo[1,2-b]pyridazin-3-yl)phenyl]-acetamide] | 0.397
COc1cccc(-c2cnc3ccc(NC4CCOCC4)nn23)c1 [BF000146183, 3-(3-methoxy-phenyl)-N-tetrahydro-pyran-4-yl-imidazo[1,2-b]pyridazin-6-amine] | 0.829
OCCCNc1ccc2ncc(-c3ccc4c(c3)OCO4)n2n1 [BF000146218, 3-[[3-(1,3-benzodioxol-5-yl)-imidazo[1,2-b]pyridazin-6-yl]amino]-propan-1-ol] | 0.708
COc1ccc(-c2cnc3ccc(NCCCO)nn23)cc1OC [BF000146224, 3-[[3-(3,4-dimethoxy-phenyl)-imidazo[1,2-b]pyridazin-6-yl]-amino]-propan-1-ol] | 0.725
COc1cc(-c2cnc3ccc(NCCCO)nn23)ccc1O [BF000146250, 4-[6-(3-hydroxy-propylamino)-imdazo[1,2-b]pyridazin-3-yl]-2-methoxy-phenol] | 0.206
CC(=O)Nc1cccc(-c2cnc3ccc(N[C@H](CO)C(C)C)nn23)c1 [BF000146300, N-[3-[6-[[(1S)-1-(hydroxy-methyl)-2-methyl-propyl]-amino]-imidazo[1,2-b]pyridazin-3-yl]-phenyl]acetamide] | 0.792
